These results are taken from patent publication US20100324017A1, “ACYLGUANIDINE DERIVATIVE” (priority 2007, published 2010).

In this test the test system is PCP-induced prepulse inhibition (PPI) disorder. Nature of the test: Disorder of PCP-induced prepulse inhibition (PPI) in a rat. Type of test: in vivo. The conditions noted are these: dose 10 mg/kg, PCP 1 mg/kg s.c., % PPI. As for the experimental part: An Improvement Effect for a Disorder of PCP-Induced Prepulse Inhibition (PPI) in a Rat
A startle amplitude occurs in humans to which an sound stimulus has been given, but in healthy human, this startle amplitude is inhibited by the giving of a weak sound stimulus that precedes the sound stimulus. For a patient with schizophrenia, the inhibitory function similarly declined. It is known that when a rat is administered with PCP (phencyclidine), there is a symptom similar to the negative symptom of schizophrenia in humans. Using this model, the improvement effect of the compound (I) for the information processing disorder included in cognitive impairment of schizophrenia was evaluated.
Species: Male Wistar rat/number of the animals (number of animals per group): 12 animals per group
Startle amplitude measuring device for small animals: an SR-LAB ABS system (manufactured by San Diego Instruments)
An animal holder, to which a Plexiglas-made cylinder for animal storage having a diameter of 8.2 cm was attached, was positioned in the upper part of a Plexiglas-made frame in a measurement box. In the measurement box, a sound-insulating treatment and ventilation (FAN) were carried out. Sound was administered by a speaker attached to the 24 cm upper part of the cylinder. The movement of the animals in the cylinder was detected by a transducer attached in the lower part of the frame and recorded by a microcomputer via an interface.
The experiment was initiated after the animals were put into the chamber for measurement and had spent 10 minutes adapting to the measurement environment. Basically, at 35 minutes after the compound to be tested was orally administered, 1 mg/kg of PCP was subcutaneously administered (1 ml/kg). Five minutes later, the rats were put into a chamber for measurement, allowed to adapt for 10 minutes, and the measurement was then initiated. A white noise of 65 dB (for all frequencies, a disordered noise having a constant energy per unit band) used as a background noise was always played through the break periods and the sessions. The three types of trials as shown below were carried out in a random order 10 times for each type with 30 times in total. Each trial was carried out at a pseudo-random interval of 20 to 60 seconds with an average of 40 seconds. A pulse was defined as a white noise of 120 dB, 20 msec, and a prepulse was defined as a white noise of 70, 80 dB, 20 msec.
The startle amplitude of the animal was measured for 100 msec from the initiation of the pulse, and the maximum value was taken as a “maximum startle amplitude (Vmax))”. The “maximum startle amplitude” for the ten times for each of the three types of trials were averaged, and taken as a “startle amplitude (simply referred to as SA)” under the stimulation condition.
The % prepulse inhibition (% PPI) was calculated in the following equation in the PP80 & P trial of 3) above.
% Prepulse inhibition (% PPI)=(Startle amplitude at P-alone trial (SA)−Startle amplitude (SA) at a PP80 & P trial)/Startle amplitude at P alone trial×100
The measured value was expressed as an average value (mean±SE). First, the startle amplitudes (SA) were statistically analyzed. […] For the measured data of % PPI, the normal group and the control group (the group administered with PCP) were compared by a Student t-test, and for the control group and the group administered with the compound to be tested were compared using a Dunnett evaluation. […] The effect of the compound to be tested was assessed with % PPI.

On to `OCCOCCN1CCN(C2=Nc3ccccc3Sc3ccccc32)CC1` [quetiapine, reference compound], for which the “improvement of the PCP-induced PPI” value is on record as “significantly improved”.
